Assay results reported in US20070010485A1 (priority 2005, published 2007).
Counter-ions that a name gives are not always drawn.

Assays:
[1] = system: P-gp expressing CD33(+) leukemia cells; conditions: cited from earlier work
[2] = use of CAPTISOL

SMILES	reversal of resistance to Mylotarg [1]	increase in water solubility with CAPTISOL [2]
O=C(C(c1ccccc1)c1ccccc1)N1CCN(CC(O)COc2cccc3ncccc23)CC1.O=C(O)/C=C/C(=O)O (centres unmarked) [MS-209]	reverse the resistance to Mylotarg	
OC(COc1cccc2ncccc12)CN1CCN([C@@H]2c3ccccc3[C@@H]3[C@H](c4ccccc42)C3(F)F)CC1 (some centres unmarked) [zosuquidar trihydrochloride]		> 5 fold
